From US20230106032A1, “IMIDAZOTRIAZINES ACTING ON CANCER VIA INHIBITION OF CDK12” (Bayer Aktiengesellschaft, priority 2020, published 2023)

Assays:
CDK9/CycT1 = target: T1, CDK9/CycT1 (Homo sapiens, UniProt P50750); test: CDK9/CycT1 high ATP kinase assay (TR-FRET, 2 mM ATP); format: biochemical; settings: read-out: CDK9/CyclinT1, 2 mM ATP (high ATP) IC50-[mol/l] (median)
T1 construct: Recombinant full-length His-tagged human CDK9 and CycT1, expressed in insect cells; His; purchased Life Technologies PV4131; host or cells: insect cells
Protocol: CDK9/CycT1-inhibitory activity of compounds of the present invention at a high ATP concentration after preincubation of enzyme and test compounds was quantified employing the CDK9/CycT1 TR-FRET assay as described in the following paragraphs.
Recombinant full-length His-tagged human CDK9 and CycT1, expressed in insect cells and purified by Ni-NTA affinity chromatography, were purchased from Life Technologies (Cat. No PV4131). As substrate for the kinase reaction biotinylated peptide biotin-Ttds-YISPLKSPYKISEG (C-terminus in amide form) was used which can be purchased e.g. form the company JERINI peptide technologies (Berlin, Germany).
For the assay 50 nanoL of a 100 fold concentrated solution of the test compound in DMSO was pipetted into either a black low volume 384 well microtiter plate or a black 1536 well microtiter plate (both Greiner Bio-One, Frickenhausen, Germany), 2 microL of a solution of CDK9/CycT1 in aqueous assay buffer [50 millimol/L Tris/HCl pH 8.0, 10 millimol/L MgCl2, 1.0 millimol/L dithiothreitol, 0.1 millimol/L sodium ortho-vanadate, 0.01% (v/v) Nonidet-P40 (Sigma)] were added and the mixture was incubated for 15 min at 22° C. to allow pre-binding of the test compounds to the enzyme before the start of the kinase reaction. Then the kinase reaction was started by the addition of 3 microL of a solution of adenosine-tri-phosphate (ATP, 3.3 millimol/L=> final conc. in the 5 microL assay volume is 2 millimol/L) and substrate (1.25 micromol/L=> final conc. in the 5 microL assay volume is 0.75 micromol/L) in assay buffer and the resulting mixture was incubated for a reaction time of 25 min at 22° C. The concentration of CDK9/CycT1 was adjusted depending of the activity of the enzyme lot and was chosen appropriate to have the assay in the linear range, typical concentrations were in the range of 0.5 microg/ml. The reaction was stopped by the addition of 3 microL of a solution of TR-FRET detection reagents (0.33 micromol/L streptavidine-XL665 [Cisbio Bioassays, Codolet, France] and 1.67 nanomol/L anti-RB(pSer807/pSer8l 1)-antibody from BD Pharmingen [#558389] and 2 nanomol/L LANCE EU-W1024 labeled anti-mouse IgG antibody [Perkin-Elmer, product no. AD0077]) in an aqueous EDTA-solution (167 millimol/L EDTA, 0.2% (w/v) bovine serum albumin in 100 millimol/L HEPES pH 7.5).
The resulting mixture was incubated 1 h at 22° C. to allow the formation of complex between the phosphorylated biotinylated peptide and the detection reagents. Subsequently the amount of phosphorylated substrate was evaluated by measurement of the resonance energy transfer from the Eu-chelate to the streptavidine-XL. Therefore, the fluorescence emissions at 620 nm and 665 nm after excitation at 350 nm was measured in a TR-FRET reader, e.g. a Pherastar (BMG Labtechnologies, Offenburg, Germany) or a Viewlux (Perkin-Elmer). The ratio of the emissions at 665 nm and at […] was taken as the measure for the amount of phosphorylated substrate. The data were normalised (enzyme reaction without inhibitor=0% inhibition, all other assay components but no enzyme=100% inhibition).

[1] = tested on: CAL-120 human breast adenocarcinoma cells; test: Proliferation assay CAL-120 (crystal violet); format: cell-based; settings: 96 h, CAL-120 cells, 4 days, read-out: Prolif-CAL-120_ IC50-[mol/l] (median)
Protocol: Human tumour cells were originally obtained from the American Type Culture Collection (ATCC), or from the Deutsche Sammlung von Mikroorganismen und Zellkulturen (DSMZ, German Collection of Microorganisms and Cell Cultures). Cultivated tumour cells (CAL-120, human breast adenocarcinoma cells, DSMZ ACC-459; MDA-MB-231, human breast cancer cells, ATCC HTB-26) were plated at a density of 4,000 cells/well in a 96-well multititer plate in 200 microL of their respective growth medium supplemented 10% fetal calf serum. After 24 hours, the cells of one plate (zero-point plate) were stained with crystal violet (see below), while the medium of the other plates was supplemented with the test substances in various concentrations (0 micromol/L, as well as in the range of 0.01-10 micromol/L; the final concentration of the solvent dimethyl sulfoxide was adjusted to 0.1%) using a Tecan HP D300 Digital Dispenser. The cells were incubated for 4 days in the presence of test substances. Cell proliferation was determined by staining the cells with crystal violet: the cells were fixed by adding 20 microL/measuring point of an 11% glutaric aldehyde solution for 15 minutes at room temperature. After three washing cycles of the fixed cells with water, the plates were dried at room temperature. The cells were stained by adding 100 microL/measuring point of a 0.1% crystal violet solution (pH 3.0). After three washing cycles of the stained cells with water, the plates were dried at room temperature. The dye was dissolved by adding 100 microL/measuring point of a 10% acetic acid solution. The extinction was determined by photometry at a wavelength of 595 nm. The change of cell number, in percent, was calculated by normalization of the measured values to the extinction values of the zero-point plate (=0%) and the extinction of the untreated (0 μM) cells (=100%). The IC50 values (inhibitory concentration at 50% of maximal effect) were determined by means of a 4 parameter fit.

T1 sequence (P50750 whole entry): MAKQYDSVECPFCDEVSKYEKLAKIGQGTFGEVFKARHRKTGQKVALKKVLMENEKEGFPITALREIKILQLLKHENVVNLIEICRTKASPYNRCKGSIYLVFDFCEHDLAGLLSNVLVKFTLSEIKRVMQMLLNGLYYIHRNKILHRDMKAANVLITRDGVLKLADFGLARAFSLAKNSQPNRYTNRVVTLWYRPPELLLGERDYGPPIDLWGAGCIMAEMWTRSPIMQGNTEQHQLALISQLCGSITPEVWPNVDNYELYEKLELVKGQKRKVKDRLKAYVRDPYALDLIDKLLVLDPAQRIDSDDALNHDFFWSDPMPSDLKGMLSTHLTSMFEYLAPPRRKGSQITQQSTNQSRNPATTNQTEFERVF
T1 sequence (O60563 whole entry partner): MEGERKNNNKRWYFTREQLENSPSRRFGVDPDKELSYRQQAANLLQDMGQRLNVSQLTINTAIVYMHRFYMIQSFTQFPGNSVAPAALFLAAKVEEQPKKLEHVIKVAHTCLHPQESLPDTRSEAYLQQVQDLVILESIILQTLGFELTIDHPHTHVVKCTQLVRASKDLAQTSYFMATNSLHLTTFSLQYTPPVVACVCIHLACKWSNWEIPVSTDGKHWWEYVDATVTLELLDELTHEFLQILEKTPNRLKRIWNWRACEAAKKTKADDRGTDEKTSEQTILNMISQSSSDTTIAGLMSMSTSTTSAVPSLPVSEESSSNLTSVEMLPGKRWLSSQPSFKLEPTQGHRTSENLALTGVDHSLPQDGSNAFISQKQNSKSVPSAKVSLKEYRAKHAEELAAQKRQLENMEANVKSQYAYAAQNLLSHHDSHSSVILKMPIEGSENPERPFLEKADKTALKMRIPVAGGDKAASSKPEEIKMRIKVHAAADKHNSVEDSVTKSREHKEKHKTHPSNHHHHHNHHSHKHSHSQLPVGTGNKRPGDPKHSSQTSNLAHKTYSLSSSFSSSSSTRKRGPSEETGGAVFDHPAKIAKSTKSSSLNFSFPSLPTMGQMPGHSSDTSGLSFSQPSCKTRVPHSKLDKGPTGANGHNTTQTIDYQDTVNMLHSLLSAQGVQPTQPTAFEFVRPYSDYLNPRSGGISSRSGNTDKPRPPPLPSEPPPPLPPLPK

IC50 (CDK9/CycT1) | IC50 [1] | SMILES
> 18.1 µM | 0.00233 µM | COc1cccc2[nH]c(CNc3nc(N4C[C@@H](C)N[C@@H](C)C4)nn4c(Br)cnc34)nc12 [Example 14, 7-bromo-2-[rel-(3R,5S)-3,5-dimethylpiperazin-1-yl]-N-[(4-methoxy-1H-benzimidazol-2-yl)methyl]imidazo[2,1-f][1,2,4]triazin-4-amine]
> 20 µM | 0.00305 µM | COc1cccc2[nH]c(CNc3nc(N4CCNCC4)nn4c(Br)cnc34)nc12 [Example 15, 7-bromo-N-[(4-methoxy-1H-benzimidazol-2-yl)methyl]-2-(piperazin-1-yl)imidazo[2,1-f][1,2,4]triazin-4-amine]
> 20 µM | 0.00589 µM | COc1cccc2[nH]c(CNc3nc(N4CCN(C)CC4)nn4c(Br)cnc34)nc12.O=CO [Example 16, 7-bromo-N-[(4-methoxy-1H-benzimidazol-2-yl)methyl]-2-(4-methylpiperazin-1-yl)imidazo[2,1-f][1,2,4]triazin-4-amine Formate (1/1)]
4.11 µM | 0.0193 µM | OC[C@@H]1CCCCN1c1nc(NCc2nc3ccccc3[nH]2)c2ncc(Br)n2n1 [Example 17, [(2S)-1-(4-{[(1H-benzimidazol-2-yl)methyl]amino}-7-bromoimidazo[2,1-f][1,2,4]triazin-2-yl)piperidin-2-yl]methanol]
14.2 µM | 0.00208 µM | C[C@@H]1CN(c2nc(NCc3nc4c(F)cccc4[nH]3)c3ncc(Br)n3n2)C[C@H](C)N1 [Example 18, 7-bromo-2-[rel-(3R,5S)-3,5-dimethylpiperazin-1-yl]-N-[(4-fluoro-1H-benzimidazol-2-yl)methyl]imidazo[2,1-f][1,2,4]triazin-4-amine]
> 20 µM | 0.00114 µM | C[C@@H]1CN(c2nc(NCc3nc4cc(F)ccc4[nH]3)c3ncc(Br)n3n2)C[C@H](C)N1 [Example 19, 7-bromo-2-[rel-(3R,5S)-3,5-dimethylpiperazin-1-yl]-N-[(5-fluoro-1H-benzimidazol-2-yl)methyl]imidazo[2,1-f][1,2,4]triazin-4-amine]
> 20 µM | 0.0107 µM | Fc1ccc2[nH]c(CNc3nc(N4CCOCC4)nn4c(Br)cnc34)nc2c1 [Example 20, 7-bromo-N-[(5-fluoro-1H-benzimidazol-2-yl)methyl]-2-(morpholin-4-yl)imidazo[2,1-f][1,2,4]triazin-4-amine]
> 20 µM | 0.00482 µM | CN1CCN(c2nc(NCc3nc4cc(F)ccc4[nH]3)c3ncc(Br)n3n2)CC1 [Example 21, 7-bromo-N-[(5-fluoro-1H-benzimidazol-2-yl)methyl]-2-(4-methylpiperazin-1-yl)imidazo[2,1-f][1,2,4]triazin-4-amine]
> 19.7 µM | 0.00306 µM | Fc1cccc2[nH]c(CNc3nc(N4CCNCC4)nn4c(Br)cnc34)nc12 [Example 22, 7-bromo-N-[(4-fluoro-1H-benzimidazol-2-yl)methyl]-2-(piperazin-1-yl)imidazo[2,1-f][1,2,4]triazin-4-amine]
> 20 µM | 0.0142 µM | CN1CCN(c2nc(NCc3nc4c(F)cccc4[nH]3)c3ncc(Br)n3n2)CC1 [Example 23, 7-bromo-N-[(4-fluoro-1H-benzimidazol-2-yl)methyl]-2-(4-methylpiperazin-1-yl)imidazo[2,1-f][1,2,4]triazin-4-amine]
> 20 µM | 0.0012 µM | C[C@@H]1CN(c2nc(NCc3nc4ccccc4[nH]3)c3ncc(C(F)(F)F)n3n2)C[C@H](C)N1.O=CO [Example 24, N-[(1H-benzimidazol-2-yl)methyl]-2-[rel-(3R,5S)-3,5-dimethylpiperazin-1-yl]-7-(trifluoromethyl)imidazo[2,1-f][1,2,4]triazin-4-amine Formate (1/1)]
> 20 µM | 0.0123 µM | CN1CCN(c2nc(NCc3nc4ccccc4[nH]3)c3ncc(C(F)(F)F)n3n2)CC1 [Example 25, N-[(1H-benzimidazol-2-yl)methyl]-2-(4-methylpiperazin-1-yl)-7-(trifluoromethyl)imidazo[2,1-f][1,2,4]triazin-4-amine]
